Measurements: ChEMBL document CHEMBL1201862, “PubChem BioAssay data set” (2004)
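Where inhibition never reached the appropriate level, the endpoint shown equals the highest concentration tested. Otherwise, values were interpolated linearly from a five-concentration, 48-hour dose response in 96-well plates. Here, GI50 denotes the concentration required for 50% inhibition of growth.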 Activity calls are given as the source filed them. Cut-off read from the data, not from the text of the source: active = GI50 up to about 1.1 µM and inactive = higher.

Columns and labels:
Assay in all cases: NCI tumour cell line growth inhibition, 48 h
[1] = system: KM12
[2] = system: A498
[3] = system: HL-60
[4] = system: Malme-3M
[5] = system: CCRF-CEM
[6] = system: RPMI-8226
[7] = system: HCT-15
[8] = system: SK-MEL-2
[9] = system: DMS-114
[10] = system: LOX IMVI
[11] = system: OVCAR-5
[12] = system: K562
[13] = system: SR
[14] = system: SN12C
[15] = system: U-251
[16] = system: XF498
[17] = system: HCC 2998
[18] = system: UO-31
[19] = system: SNB-78
[20] = system: SF-539
[21] = system: LXFL 529
[22] = system: SF-268
[23] = system: SNB-19
[24] = system: ACHN
[25] = system: HCT-116
[26] = system: RXF 393
[27] = system: UACC-257
[28] = system: NCI-H226
[29] = system: M14
[30] = system: SK-MEL-28
[31] = system: HOP-18
[32] = system: COLO 205
[33] = system: SW-620
[34] = system: DMS-273
[35] = system: A549
[36] = system: SK-MEL-5
[37] = system: OVCAR-4
[38] = system: SNB-75
[39] = system: HOP-92
[40] = system: DLD-1
[41] = system: CAKI-1
[42] = system: NCI-H23
[43] = system: TK-10
[44] = system: NCI-H460
[45] = system: SF-295
[46] = system: MOLT-4
[47] = system: OVCAR-8
[48] = system: HT-29
[49] = system: IGROV-1
[50] = system: EKVX

OCc1cc2ccncc2c2c1[nH]c1ccccc12
GI50 [1]: 4.68 µM (inactive)
GI50 [2]: 4.5 µM (inactive)
GI50 [3]: 4.84 µM (inactive)
GI50 [4]: 6.95 µM (inactive)
GI50 [5]: 7.33 µM (inactive)
GI50 [6]: 6.31 µM (inactive)
GI50 [7]: 5.64 µM
GI50 [8]: 12.1 µM (inactive)
GI50 [9]: 6.38 µM (inactive)
GI50 [10]: 3.44 µM (inactive)
GI50 [11]: 3.95 µM (inactive)
GI50 [12]: 7.55 µM (inactive)
GI50 [13]: 2.83 µM (inactive)
GI50 [14]: 5.42 µM (inactive)
GI50 [15]: 6.25 µM (inactive)
GI50 [16]: 5.25 µM (inactive)
GI50 [17]: 2.44 µM (inactive)
GI50 [18]: 7.53 µM (inactive)
GI50 [19]: 13.2 µM (inactive)
GI50 [20]: 3.72 µM (inactive)
GI50 [21]: 4.58 µM (inactive)
GI50 [22]: 4.66 µM (inactive)
GI50 [23]: 6.49 µM (inactive)
GI50 [24]: 3.83 µM (inactive)
GI50 [25]: 3.74 µM (inactive)
GI50 [26]: 2.96 µM (inactive)
GI50 [27]: 14.8 µM (inactive)
GI50 [28]: 2.13 µM (inactive)
GI50 [29]: 13.2 µM (inactive)
GI50 [30]: 9.35 µM (inactive)
GI50 [31]: 2.52 µM (inactive)
GI50 [32]: 6.82 µM (inactive)
GI50 [33]: 3.29 µM (inactive)
GI50 [34]: 4.04 µM (inactive)
GI50 [35]: 4.37 µM (inactive)
GI50 [36]: 8 µM (inactive)
GI50 [37]: 6.95 µM (inactive)
GI50 [38]: 4.51 µM (inactive)
GI50 [39]: 12.1 µM (inactive)
GI50 [40]: 3.96 µM (inactive)
GI50 [41]: 4.65 µM (inactive)
GI50 [42]: 7.26 µM (inactive)
GI50 [43]: 11.8 µM (inactive)
GI50 [44]: 2.76 µM (inactive)
GI50 [45]: 5.81 µM (inactive)
GI50 [46]: 3.66 µM (inactive)
GI50 [47]: 4.95 µM (inactive)
GI50 [48]: 4.58 µM (inactive)
GI50 [49]: 2.73 µM (inactive)
GI50 [50]: 3.91 µM (inactive)
